Key:
Format in all cases: cell-based
interleukin-6 (IL-6) = assay: Skin organotypic culture analysis: AP-induced IL-6 release into the medium; conditions: for IL-6 release (mean ± SD): 24 h, Nil 21.5, AP 57.1
Procedure: (§1) The cultures were then incubated at 37° C., 5% CO2, and 95% relative humidity (standard cell culture conditions) for 24 h. The culture medium was assayed for the pro-inflammatory cytokine interleukin-6 (IL-6) and after washing to remove the AP formulation, the viability of the culture was determined using the Thiazoyl blue (MTT) assay (Mosmann, T. J. Immunol. Methods 65, p55 (1983). IL-6 was determined using an Immunoassay (Quantikine, R&D systems).
(§2) In this Example, skin organotypic cultures (Epiderm™, MatTek, USA) were treated topically with the above-identified AP formulation and the trans-10-cis-12 conjugated linoleic acid (TC CLA) was introduced into the medium. The cultures were then incubated at 37° C., 5% CO2, and 95% relative humidity (standard cell culture conditions) for 24 h. The culture medium was assayed for the pro-inflammatory cytokine interleukin-6 (IL-6) and after washing to remove the AP formulation, the viability of the culture was determined by the method described in Example 2.
as §1, with “hours.” for “h.”, “MTT assay.” for “Thiazoyl blue (MTT) assay (Mosmann, T. J. Immunol. Methods 65, p55 (1983).”, “ELISA assay (R&D” for “Immunoassay (Quantikine, R&D”

[1] = tested on: skin organotypic cultures (Epiderm); assay: Viability of skin organotypic cultures (MTT assay)
Procedure: as §1, §2
as §1, with “hours.” for “h.”, “MTT assay.” for “Thiazoyl blue (MTT) assay (Mosmann, T. J. Immunol. Methods 65, p55 (1983).”, “ELISA assay (R&D” for “Immunoassay (Quantikine, R&D”

[2] = tested on: Human foreskin keratinocytes; assay: Keratinocyte proliferation analysis (DNA content per well, Pico Green); conditions: for DNA: 4 days, control (0 μM) 3.5
Procedure: Human foreskin keratinocytes (passage 3) were seeded at 4000 cells/well in 96 well plates in Keratinocyte Growth Medium (abbreviated to KGM) containing 0.03 mM calcium and grown for 3 days at 37° C. The cells were then treated with PPAR ligands in KGM containing 0.03 mM calcium for 4 days prior to harvest. Stock solutions of PPAR ligands were dissolved in dimethylsulphoxide (DMSO) and diluted in KGM before adding to the cells. […] The harvested cells were washed 3× in phosphate buffered saline (PBS) and extracted in 1% Triton X100, 50 mM (tris[hydroxymethyl]aminomethane) (Tris) pH 8.0 plus protease inhibitors pepstatin and leupeptin (100 μl/well). The extract was assayed for DNA content using the Pico Green DNA assay (Molecular Probes, Inc.).
Cultured keratinocytes were treated with cis-9-trans-11 conjugated linoleic acid (CT-CLA) for 4 days. The cells were extracted with Tris-1% Triton X100 and the DNA content per well was determine by the Pico Green assay in accordance with the above described procedure.

## CC\C=C/C=C/C=C/C=C\CCCCCCCC(=O)O [cis parinaric acid, cis-parinaric acid]
interleukin-6 (IL-6); 1-100 μM, Dunnet's test p<0.05
  AP-induced IL-6 release: significantly decrease
interleukin-6 (IL-6); Table 14: 1.0 μM (+ AP)
  IL-6 release (mean ± SD): 26.8
interleukin-6 (IL-6); Table 14: 10.0 μM (+ AP)
  IL-6 release (mean ± SD): 23.3
interleukin-6 (IL-6); Table 14: 100.0 μM (+ AP)
  IL-6 release (mean ± SD): 25.7
[1]
  Culture viability: not significantly different
[2]; Example 12: 10 and 20 μM, 1 way ANOVA, p<0.05
  keratinocyte DNA synthesis activity, statement: significantly reduce
[2]; Table 13: 1 μM
  DNA: 3.3 ng/well
[2]; Table 13: 5 μM
  DNA: 4.1 ng/well
[2]; Table 13: 10 μM
  DNA: 2.6 ng/well
[2]; Table 13: 20 μM
  DNA: 1.5 ng/well

Source: US6713051B2, “Antiperspirant or deodorant compositions” (Unilever Home & Personal Care USA division of Conopco, Inc., priority 2001, dated 2004)
